From US20230167073A1 (Teijin Pharma Limited, priority 2020, published 2023)

These compounds were tested against T1, Human TRPC6 (Homo sapiens, UniProt Q9Y210) (assay: Evaluation of TRPC6 channel inhibitory activity (1), FLIPR Calcium 5 Assay Kit, OAG stimulation (Compound Nos. 1-1293)). Details: Human TRPC6 stably-expressing cells, OAG 30 μM, FLIPR Calcium 5 Assay Kit; read-out: Inhibitory activity (pIC50 class) (converted).
T1 construct: expressed in transfected cells
T1 sequence (Q9Y210 1-931): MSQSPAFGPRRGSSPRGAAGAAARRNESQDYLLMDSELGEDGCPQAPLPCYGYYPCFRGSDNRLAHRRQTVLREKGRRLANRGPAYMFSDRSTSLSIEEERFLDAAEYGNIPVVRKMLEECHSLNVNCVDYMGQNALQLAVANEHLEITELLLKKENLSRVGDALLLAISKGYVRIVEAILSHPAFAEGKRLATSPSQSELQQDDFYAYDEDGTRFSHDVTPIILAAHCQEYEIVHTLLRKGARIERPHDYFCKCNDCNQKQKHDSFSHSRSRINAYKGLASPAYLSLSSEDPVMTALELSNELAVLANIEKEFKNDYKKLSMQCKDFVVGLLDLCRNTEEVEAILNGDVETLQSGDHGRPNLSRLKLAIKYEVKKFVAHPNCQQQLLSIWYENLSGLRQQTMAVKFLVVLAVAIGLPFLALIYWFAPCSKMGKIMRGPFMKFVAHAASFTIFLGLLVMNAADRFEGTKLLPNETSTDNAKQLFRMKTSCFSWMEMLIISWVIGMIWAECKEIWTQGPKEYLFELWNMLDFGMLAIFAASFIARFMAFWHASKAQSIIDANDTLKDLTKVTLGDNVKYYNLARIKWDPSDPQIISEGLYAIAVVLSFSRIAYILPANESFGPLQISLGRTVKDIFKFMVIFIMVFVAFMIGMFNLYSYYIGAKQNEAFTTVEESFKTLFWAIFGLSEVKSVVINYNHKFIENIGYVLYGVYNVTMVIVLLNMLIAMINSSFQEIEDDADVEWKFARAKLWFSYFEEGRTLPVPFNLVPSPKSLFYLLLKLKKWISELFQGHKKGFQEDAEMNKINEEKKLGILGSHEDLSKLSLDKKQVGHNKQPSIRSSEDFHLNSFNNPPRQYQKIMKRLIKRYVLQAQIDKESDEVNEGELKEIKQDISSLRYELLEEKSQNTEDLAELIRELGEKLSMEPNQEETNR
Format: cell-based
Outline: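 Stable human TRPC6 line; fluorescent Ca2+ dye loading, then 20 min compound exposure before 30 μM OAG trigger. Peak-minus-baseline signal converted to % inhibition against untreated and unstimulated wells; potency given as pIC50 band.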

| SMILES | IC50 [nM] |
| --- | --- |
| Cn1nc(-c2ncccn2)cc1Oc1cc(C#N)ccc1-c1ccc([C@H](O)CN)cn1 [compound 540, 4-[5-[(1S)-2-amino-1-hydroxyethyl]pyridin-2-yl]-3-(2-methyl-5-pyrimidin-2-ylpyrazol-3-yl)oxybenzonitrile] | > 1000 |
| CC(=O)Nc1cc(Oc2cc(C#N)ccc2-c2ccc([C@H](O)CN)cn2)n(C)n1 [compound 548, N-[5-[2-[5-[(1S)-2-amino-1-hydroxyethyl]pyridin-2-yl]-5-cyanophenoxy]-1-methylpyrazol-3-yl]acetamide] | > 1000 |
| Cn1nc(C2CC2)cc1Oc1cc(C#N)ccc1-c1cc(C(=O)NCCN)ccn1 [compound 551, N-(2-aminoethyl)-2-[4-cyano-2-(5-cyclopropyl-2-methylpyrazol-3-yl)oxyphenyl]pyridine-4-carboxamide] | 10 to 1000 |
| Cn1nc(C2CC2)cc1Oc1cc(C#N)ccc1-c1cc(C(=O)N2CCNCC2)ccn1 [compound 552, 3-(5-cyclopropyl-2-methylpyrazol-3-yl)oxy-4-[4-(piperazine-1-carbonyl)pyridin-2-yl]benzonitrile] | > 1000 |
| Cn1nc(C2CC2)cc1Oc1cc(C#N)ccc1-c1cc(C(=O)N2CCC(N)CC2)ccn1 [compound 553, 4-[4-(4-aminopiperidine-1-carbonyl)pyridin-2-yl]-3-(5-cyclopropyl-2-methylpyrazol-3-yl)oxybenzonitrile] | > 1000 |
| Cn1nc(C2CC2)cc1Oc1cc(C#N)ccc1-c1cc(C(=O)N2CCC[C@@H](N)C2)ccn1 [compound 554, 4-[4-[(3R)-3-aminopiperidine-1-carbonyl]pyridin-2-yl]-3-(5-cyclopropyl-2-methylpyrazol-3-yl)oxybenzonitrile] | > 1000 |
| Cn1nc(C2CC2)cc1Oc1cc(C#N)ccc1-c1cc(C(=O)N2CCC[C@H](N)C2)ccn1 [compound 555, 4-[4-[(3S)-3-aminopiperidine-1-carbonyl]pyridin-2-yl]-3-(5-cyclopropyl-2-methylpyrazol-3-yl)oxybenzonitrile] | > 1000 |
| Cn1nc(C2CC2)cc1Oc1cc(C#N)ccc1-c1cc(OCCN)ccn1 [compound 556, 4-[4-(2-aminoethoxy)pyridin-2-yl]-3-(5-cyclopropyl-2-methylpyrazol-3-yl)oxybenzonitrile] | 10 to 1000 |
| Cc1nc(Oc2cc(C#N)ccc2-c2ncc([C@H](O)CN)cn2)cc(N2CCO[C@@H](C)C2)n1 [compound 559, 4-[5-[(1S)-2-amino-1-hydroxyethyl]pyrimidin-2-yl]-3-[2-methyl-6-[(2S)-2-methylmorpholin-4-yl]pyrimidin-4-yl]oxybenzonitrile] | 10 to 1000 |
| Cc1nc(Oc2cc(C#N)ccc2-c2ncc([C@H](O)CN)cn2)cc(N2CCOC(C)(C)C2)n1 [compound 561, 4-[5-[(1S)-2-amino-1-hydroxyethyl]pyrimidin-2-yl]-3-[6-(2,2-dimethylmorpholin-4-yl)-2-methylpyrimidin-4-yl]oxybenzonitrile] | 10 to 1000 |

More lines, now with the values ahead:

| IC50 [nM] | SMILES |
| --- | --- |
| > 1000 | Cc1cc(Oc2cc(C#N)ccc2-c2ccc(C3(O)CNC3)cn2)cc(N2CCOCC2)n1 [compound 537, 4-[5-(3-hydroxyazetidin-3-yl)pyridin-2-yl]-3-(2-methyl-6-morpholin-4-ylpyridin-4-yl)oxybenzonitrile] |
| 10 to 1000 | Cc1cc(Oc2cc(C#N)ccc2-c2ccc(C3(F)CNC3)cn2)cc(N2CCOCC2)n1 [compound 538, 4-[5-(3-fluoroazetidin-3-yl)pyridin-2-yl]-3-(2-methyl-6-morpholin-4-ylpyridin-4-yl)oxybenzonitrile] |
| 10 to 1000 | Cc1cc(Oc2cc(C#N)ccc2-c2ccc(C3OCCCC3N)cn2)cc(N2CCOCC2)n1 (stereo not shown) [compound 539, 4-[5-(3-aminooxan-2-yl)pyridin-2-yl]-3-(2-methyl-6-morpholin-4-ylpyridin-4-yl)oxybenzonitrile] |
| < 10 | Cn1nc(N2CCCCC2)cc1Oc1cc(C#N)ccc1-c1ccc(CCN)cn1 [compound 541, 4-[5-(2-aminoethyl)pyridin-2-yl]-3-(2-methyl-5-piperidin-1-ylpyrazol-3-yl)oxybenzonitrile] |
| < 10 | Cn1nc(N2CCCC2)cc1Oc1cc(C#N)ccc1-c1ccc(CCN)cn1 [compound 542, 4-[5-(2-aminoethyl)pyridin-2-yl]-3-(2-methyl-5-pyrrolidin-1-ylpyrazol-3-yl)oxybenzonitrile] |
| < 10 | CN(C)c1cc(Oc2cc(C#N)ccc2-c2ccc(CCN)cn2)n(C)n1 [compound 543, 4-[5-(2-aminoethyl)pyridin-2-yl]-3-[5-(dimethylamino)-2-methylpyrazol-3-yl]oxybenzonitrile] |
| < 10 | Cn1nc(N2CCCCC2)cc1Oc1cc(C#N)ccc1-c1ccc([C@H](O)CN)cn1 [compound 544, 4-[5-[(1S)-2-amino-1-hydroxyethyl]pyridin-2-yl]-3-(2-methyl-5-pipeddin-1-ylpyrazol-3-yl)oxybenzonitrile] |
| 10 to 1000 | Cn1nc(N2CCCC2)cc1Oc1cc(C#N)ccc1-c1ccc([C@H](O)CN)cn1 [compound 545, 4-[5-[(1S)-2-amino-1-hydroxyethyl]pyridin-2-yl]-3-(2-methyl-5-pyrrolidin-1-ylpyrazol-3-yl)oxybenzonitrile] |
| 10 to 1000 | CN(C)c1cc(Oc2cc(C#N)ccc2-c2ccc([C@H](O)CN)cn2)n(C)n1 [compound 546, 4-[5-[(1S)-2-amino-1-hydroxyethyl]pyridin-2-yl]-3-[5-(dimethylamino)-2-methylpyrazol-3-yl]oxybenzonitrile] |
| 10 to 1000 | CC(=O)Nc1cc(Oc2cc(C#N)ccc2-c2ccc(CCN)cn2)n(C)n1 [compound 547, N-[5-[2-[5-(2-aminoethyl)pyridin-2-yl]-5-cyanophenoxy]-1-methylpyrazol-3-yl]acetamide] |
| 10 to 1000 | CC(C)Nc1cc(Oc2cc(C#N)ccc2-c2ccc([C@H](O)CN)cn2)n(C)n1 [compound 549, 4-[5-[(1S)-2-amino-1-hydroxyethyl]pyridin-2-yl]-3-[2-methyl-5-(propan-2-ylamino)pyrazol-3-yl]oxybenzonitrile] |
| < 10 | Cc1cc(Oc2cc(C#N)ccc2-c2ccc([C@H](O)CN)cn2)cc(N2CCOC[C@H]2C)n1 [compound 550, 4-[5-[(1S)-2-amino-1-hydroxyethyl]pyridin-2-yl]-3-[2-methyl-6-[(3R)-3-methylmorpholin-4-yl]pyridin-4-yl]oxybenzonitrile] |
| 10 to 1000 | Cn1nc(Oc2cc(C#N)ccc2-c2ccc(CCN)cn2)cc1N1CCOCC1 [compound 557, 4-[5-(2-aminoethyl)pyridin-2-yl]-3-(1-methyl-5-morpholin-4-ylpyrazol-3-yl)oxybenzonitrile] |
| 10 to 1000 | Cc1nc(Oc2cc(C#N)ccc2-c2ccc([C@H](O)CN)cn2)cc(N2CCO[C@@H](C)C2)n1 [compound 558, 4-[5-[(1S)-2-amino-1-hydroxyethyl]pyridin-2-yl]-3-[2-methyl-6-[(2S)-2-methylmorpholin-4-yl]pyrimidin-4-yl]oxybenzonitrile] |
| 10 to 1000 | Cc1nc(Oc2cc(C#N)ccc2-c2ccc([C@H](O)CN)cn2)cc(N2CCOC(C)(C)C2)n1 [compound 560, 4-[5-[(1S)-2-amino-1-hydroxyethyl]pyridin-2-yl]-3-[6-(2,2-dimethylmorpholin-4-yl)-2-methylpyrimidin-4-yl]oxybenzonitrile] |
